From patent US7872036B2, “3-triazolylphenyl sulfide derivative and insecticide, miticide and nematicide containing it as an active ingredient” (Kumiai Chemical Industry Co., Ltd., priority 2004, dated 2011) come the findings set out here.

Assay [1] deals with two-spotted spider mites. As to the kind of experiment: Miticidal test on two-spotted spider mites (by soil drenching). It counts as in vivo, Tetranychus urticae. As to conditions: active ingredient 100 ppm, 5 ml per 100 g soil, 25° C., 13 days. Set-up: scale not given here. The method, then:
Wettable powders were prepared in accordance with Formulation Example 2 and diluted with water to an active ingredient concentration of 100 ppm. 100 g of the soil in cups with soybean seedlings which had been inoculated with imago two-spotted spider mites were drenched with 5 ml of the resulting solutions. The treated seedlings were placed in a […] chamber at 25° C. for 13 days, and the mite survivors were counted for calculation of the miticidal value by using Equation 2.

The test system of assay [2] is two-spotted spider mites. As to the kind of experiment: Miticidal test on two-spotted spider mites (by dipping). The class given is in vivo, Tetranychus urticae. Set-up: scale not given here. To be noted: dipping of soybean seedlings, active ingredient 500 ppm, 25° C., 13 days. As to the method: Wettable powders were prepared in accordance with Formulation Example 2 and diluted with water to an active ingredient concentration of 500 ppm. Soybean seedlings which had been inoculated with imago two-spotted spider mites were dipped in the resulting solutions and dried in air. The treated seedlings were placed in a thermostatic chamber at 25° C. for 13 days, and the mite survivors were counted for calculation of the miticidal value by using Equation 2. The test was carried out by one series system.

Another assay deals with brown planthoppers. As to the kind of experiment: Insecticidal test on brown planthoppers. It counts as in vivo, Nilaparvata lugens. To be noted: active ingredient 500 ppm, germinating rice immersed, 4th-instar larvae, 25° C., 6 days. The method, then:
Wettable powders were prepared in accordance with Formulation Example 2 and diluted with water to an active ingredient concentration of 500 ppm. Germinating rice was immersed in the resulting solutions and put in a plastic cup with a capacity of 60 ml. Ten 4th-instar larvae of brown planthoppers were released to the cup, and the cup was covered and placed in a thermostatic chamber at 25° C. for 6 days, and the survivors were counted for calculation of the insecticidal degree by using Equation 1. The test was carried out by one series system.

On to `Cc1cc(F)c(-n2nc(SC(F)(F)C(F)(F)F)nc2N)cc1[S+]([O-])CC(F)(F)F` (racemic) [Compound 177], for which the Miticidal value with two-spotted spider mites [1] and in the assay on two-spotted spider mites [2] was 100 throughout.
As to `Cc1cc(F)c(-n2nc(C(C(F)(F)F)C(F)(F)F)nc2N)cc1[S+]([O-])CC(F)(F)F` (racemic) [Compound 183], the Miticidal value with two-spotted spider mites [1] and in the assay with two-spotted spider mites [2] was 100 each time.
Regarding `C#CCNc1nc(SCC(F)(F)F)nn1-c1cc([S+]([O-])CC(F)(F)F)c(C)cc1F` (racemic) [Compound 185], the Miticidal value in the assay on two-spotted spider mites [1] and in the assay with two-spotted spider mites [2] was 100 throughout. For the same compound, the “Insecticidal degree (%)” value in the assay on brown planthoppers is on record as 100%.
`CCC(=O)Nc1nc(C(F)(F)F)nn1-c1cc([S+]([O-])CC(F)(F)F)c(C)cc1F` (racemic) [Compound 187]: the figures for the Miticidal value with two-spotted spider mites [1] and in the assay on two-spotted spider mites [2] were 99 and 100, respectively. Also, in the assay on brown planthoppers, the “Insecticidal degree (%)” value came out at 100%.
Taken in the same sequence, the figures for `Cc1cc(F)c(-n2nc(C(F)(F)F)nc2NC(=O)CCl)cc1[S+]([O-])CC(F)(F)F` (racemic) [Compound 190] were 100, 100 and 100%.
Taken in the same sequence, the figures for `Cc1cc(F)c(-n2nc(C(F)(F)F)nc2NC(=O)C(F)(F)Cl)cc1[S+]([O-])CC(F)(F)F` (racemic) [Compound 192] were 100, 100 and 100%.
The like results for `C#CCNc1nc(SC(F)(F)C(F)(F)F)nn1-c1cc([S+]([O-])CC(F)(F)F)c(C)cc1F` (racemic) [Compound 194] were, in that order, 100, 100 and 100%.
Regarding `Cc1cc(F)c(-n2nc(C(F)(F)F)nc2NC(=O)NC(C)C)cc1[S+]([O-])CC(F)(F)F` (racemic) [Compound 202], the Miticidal value in the assay with two-spotted spider mites [1] and in the assay with two-spotted spider mites [2] was 100 throughout. Moreover, in the assay with brown planthoppers, the “Insecticidal degree (%)” value is on record as 100%.
For `Cc1cc(F)c(-n2nc(C(F)(F)F)nc2N)cc1[S+]([O-])CC1CC1` (stereo not drawn) [Compound 4], the Miticidal value with two-spotted spider mites [1] and with two-spotted spider mites [2] was 100 in each case. The “Insecticidal degree (%)” value in the assay with brown planthoppers was 90%.
In the case of `Cc1cc(F)c(-n2nc(C(F)(F)F)nc2NC(=O)C(F)(F)F)cc1SCC(F)(F)F` [Compound 5, [5-(5-trifluoroacetylamino-3-trifluoromethyl-1,2,4-triazolyl)-4-fluoro-2-methylphenyl]2,2,2-trifluoroethyl sulfide], the Miticidal value in the assay on two-spotted spider mites [1] and with two-spotted spider mites [2] was 100 in each case. Moreover, the “Insecticidal degree (%)” value in the assay with brown planthoppers worked out at 100%.
For `Cc1cc(Cl)c(-n2nc(C(F)(F)F)nc2N)cc1[S+]([O-])CC(F)(F)F` (stereo not drawn) [Compound 8, [5-(5-amino-3-trifluoromethyl-1,2,4-triazolyl)-4-chloro-2-methylphenyl]2,2,2-trifluoroethyl sulfoxide], the Miticidal value in the assay with two-spotted spider mites [1] and in the assay on two-spotted spider mites [2] was 100 in each case.
As for `Cc1cc(F)c(-n2nc(SC(F)F)nc2N)cc1[S+]([O-])CC(F)(F)F` (stereo not drawn) [Compound 28], the Miticidal value with two-spotted spider mites [1] and in the assay on two-spotted spider mites [2] was 100 in each case. For the same compound, the “Insecticidal degree (%)” value with brown planthoppers is given as 100%.
Take `Cc1cc(F)c(-n2nc(SC(F)(F)F)nc2N)cc1[S+]([O-])CC(F)(F)F` (stereo not drawn) [Compound 32]: the Miticidal value in the assay on two-spotted spider mites [1] and in the assay on two-spotted spider mites [2] was 100 each time. Also, the “Insecticidal degree (%)” value with brown planthoppers stood at 100%.
As for `CNc1nc(C(F)(F)F)nn1-c1ccc(C)c(SCC(F)(F)F)c1` [Compound 37], the Miticidal value in the assay with two-spotted spider mites [1] and in the assay on two-spotted spider mites [2] was 100 each time. Further, the “Insecticidal degree (%)” value with brown planthoppers is 100%.
Consider `Cc1cc(C)c([S+]([O-])CC(F)(F)F)cc1-n1nc(C(F)(F)F)nc1N` (stereo not drawn) [Compound 56], for which the Miticidal value in the assay with two-spotted spider mites [1] and with two-spotted spider mites [2] was 100 throughout.
Turning to `CCNc1nc(C(F)(F)F)nn1-c1cc([S+]([O-])CC(F)(F)F)c(C)cc1F` (stereo not drawn) [Compound 60], the Miticidal value in the assay with two-spotted spider mites [1] and in the assay on two-spotted spider mites [2] was 100 in each case. For the same compound, the “Insecticidal degree (%)” value in the assay on brown planthoppers came to 100%.
In the case of `CC(=O)Nc1nc(C(F)(F)F)nn1-c1cc([S+]([O-])CC(F)(F)F)c(C)cc1F` (stereo not drawn) [Compound 76], the Miticidal value in the assay on two-spotted spider mites [1] and with two-spotted spider mites [2] was 100 in each case. In addition, the “Insecticidal degree (%)” value in the assay on brown planthoppers amounted to 100%.
In the case of `COC(=O)Nc1nc(C(F)(F)F)nn1-c1cc([S+]([O-])CC(F)(F)F)c(C)cc1F` (stereo not drawn) [Compound 80], the Miticidal value in the assay on two-spotted spider mites [1] and in the assay with two-spotted spider mites [2] was 100 each time. Also, in the assay on brown planthoppers, the “Insecticidal degree (%)” value was 100%.
As to `Cc1cc(F)c(-n2nc(C(F)(F)F)nc2NC(=O)N(C)C)cc1[S+]([O-])CC(F)(F)F` (stereo not drawn) [Compound 84], the Miticidal value in the assay with two-spotted spider mites [1] and in the assay with two-spotted spider mites [2] was 100 each time. The “Insecticidal degree (%)” value with brown planthoppers is 100%.
For the compound `CNc1nc(C(F)(F)F)nn1-c1cc([S+]([O-])CC(F)(F)F)c(C)cc1Cl` (stereo not drawn) [Compound 98], the Miticidal value with two-spotted spider mites [1] and with two-spotted spider mites [2] was 100 throughout.
Consider `Cc1cc(F)c(-n2nc(SC(F)(F)F)nc2NC(=O)C(F)(F)F)cc1SCC(F)(F)F` [Compound 99], for which the Miticidal value in the assay with two-spotted spider mites [1] and with two-spotted spider mites [2] was 100 each time. Also, in the assay on brown planthoppers, the “Insecticidal degree (%)” value was 100%.
Consider `Cc1cc(F)c(-n2nc(C(C)(C)C#N)nc2N)cc1[S+]([O-])CC(F)(F)F` (stereo not drawn) [Compound 104], for which the Miticidal value with two-spotted spider mites [1] and in the assay with two-spotted spider mites [2] was 100 in each case.
As for `Cc1cc(F)c(-n2nc(CC(C)(C)C)nc2N)cc1[S+]([O-])CC(F)(F)F` (stereo not drawn) [Compound 107], the Miticidal value with two-spotted spider mites [1] and with two-spotted spider mites [2] was 100 in each case.
For the compound `Cc1cc(F)c(-n2nc(C(C)C)nc2N)cc1[S+]([O-])CC(F)(F)F` (stereo not drawn) [Compound 111], the Miticidal value with two-spotted spider mites [1] and in the assay with two-spotted spider mites [2] was 100 each time. Further, the “Insecticidal degree (%)” value with brown planthoppers turned out to be 100%.
In the case of `CC(=O)Nc1nc(C(C)(C)C)nn1-c1cc([S+]([O-])CC(F)(F)F)c(C)cc1F` (stereo not drawn) [Compound 113], the Miticidal value in the assay with two-spotted spider mites [1] and in the assay on two-spotted spider mites [2] was 100 throughout. Also, the “Insecticidal degree (%)” value in the assay on brown planthoppers stood at 100%.
As for `N#Cc1ccc(-n2nc(C(F)(F)F)nc2N)cc1[S+]([O-])CC(F)(F)F` (stereo not drawn) [Compound 121], the Miticidal value in the assay with two-spotted spider mites [1] and with two-spotted spider mites [2] was 100 each time.
As to `Cc1cc(F)c(-n2nc(C(C)(C)C)nc2N)cc1[S+]([O-])CC(F)(F)F` (stereo not drawn) [Compound 145], the Miticidal value in the assay on two-spotted spider mites [1] and in the assay on two-spotted spider mites [2] was 100 in each case.
Consider `CNc1nc(C(F)(F)F)nn1-c1cc([S+]([O-])CC(F)(F)F)c(C)cc1C` (stereo not drawn) [Compound 147], for which the Miticidal value in the assay on two-spotted spider mites [1] and with two-spotted spider mites [2] was 100 in each case.
For the compound `O=Cc1ccc(-n2cnc(C(F)(F)F)n2)cc1[S+]([O-])CC(F)(F)F` (stereo not drawn) [a, reference compound], the values for the Miticidal value in the assay on two-spotted spider mites [1] and with two-spotted spider mites [2] were 0 and 100, respectively.
Take `[O-][S+](CC(F)(F)F)c1cc(-n2cnc(C(F)(F)F)n2)ccc1CF` (stereo not drawn) [b, reference compound]: the Miticidal value in the assay with two-spotted spider mites [1] came out at 0; in the assay with two-spotted spider mites [2], 99.
